Experiment [1] deals with T1, AHR (Homo sapiens, UniProt P35869).
T1 construct: U87 MG glioblastoma cells (ATCC #HTB-14) endogenously expressing AHR; endogenous in cells; host or cells: U87 MG glioblastoma cells (ATCC #HTB-14)
T1 sequence (P35869 11-848): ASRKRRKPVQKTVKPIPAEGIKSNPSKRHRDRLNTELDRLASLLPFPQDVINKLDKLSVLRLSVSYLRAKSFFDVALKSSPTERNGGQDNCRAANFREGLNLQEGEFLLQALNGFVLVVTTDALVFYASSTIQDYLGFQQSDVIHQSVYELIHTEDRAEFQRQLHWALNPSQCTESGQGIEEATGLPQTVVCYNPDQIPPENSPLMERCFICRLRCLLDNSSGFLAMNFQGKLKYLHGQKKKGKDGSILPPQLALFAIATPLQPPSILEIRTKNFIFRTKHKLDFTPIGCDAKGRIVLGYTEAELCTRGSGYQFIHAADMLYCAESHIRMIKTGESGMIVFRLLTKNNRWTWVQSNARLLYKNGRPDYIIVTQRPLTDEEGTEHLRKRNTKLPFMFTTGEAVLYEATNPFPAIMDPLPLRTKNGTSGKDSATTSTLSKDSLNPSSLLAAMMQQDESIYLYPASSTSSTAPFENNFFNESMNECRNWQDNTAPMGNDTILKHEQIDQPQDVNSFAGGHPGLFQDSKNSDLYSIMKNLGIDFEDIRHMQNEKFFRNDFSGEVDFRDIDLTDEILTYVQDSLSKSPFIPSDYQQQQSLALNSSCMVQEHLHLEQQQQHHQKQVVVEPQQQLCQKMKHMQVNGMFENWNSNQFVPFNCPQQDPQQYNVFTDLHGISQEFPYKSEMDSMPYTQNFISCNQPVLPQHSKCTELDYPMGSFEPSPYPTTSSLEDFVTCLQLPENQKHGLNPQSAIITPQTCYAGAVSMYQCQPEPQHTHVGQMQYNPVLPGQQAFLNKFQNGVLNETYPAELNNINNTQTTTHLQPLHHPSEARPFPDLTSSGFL
As to the kind of experiment: In vitro assay 1: antagonism in human cell line (AHR transactivation, firefly luciferase reporter, kynurenic acid prestimulated). The class given is cell-based. The conditions noted are these: AHR Antagonism Human IC50 [M]. The method, boiled down:
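U87 MG + DRE-firefly/constitutive-Renilla stable reporters; kynurenic acid prestim; dual-luc read; Renilla = tox; normalized vs pos/neg controls (pos: 150 μM KYNA + 5 μM staurosporine).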
For orientation: In a reporter assay the amount or activity of a reporter protein is the signal.

The target in experiment [2] is T2, AHR (Mus musculus, UniProt P30561).
T2 sequence (P30561 1-848 P471L/N533S/M589L): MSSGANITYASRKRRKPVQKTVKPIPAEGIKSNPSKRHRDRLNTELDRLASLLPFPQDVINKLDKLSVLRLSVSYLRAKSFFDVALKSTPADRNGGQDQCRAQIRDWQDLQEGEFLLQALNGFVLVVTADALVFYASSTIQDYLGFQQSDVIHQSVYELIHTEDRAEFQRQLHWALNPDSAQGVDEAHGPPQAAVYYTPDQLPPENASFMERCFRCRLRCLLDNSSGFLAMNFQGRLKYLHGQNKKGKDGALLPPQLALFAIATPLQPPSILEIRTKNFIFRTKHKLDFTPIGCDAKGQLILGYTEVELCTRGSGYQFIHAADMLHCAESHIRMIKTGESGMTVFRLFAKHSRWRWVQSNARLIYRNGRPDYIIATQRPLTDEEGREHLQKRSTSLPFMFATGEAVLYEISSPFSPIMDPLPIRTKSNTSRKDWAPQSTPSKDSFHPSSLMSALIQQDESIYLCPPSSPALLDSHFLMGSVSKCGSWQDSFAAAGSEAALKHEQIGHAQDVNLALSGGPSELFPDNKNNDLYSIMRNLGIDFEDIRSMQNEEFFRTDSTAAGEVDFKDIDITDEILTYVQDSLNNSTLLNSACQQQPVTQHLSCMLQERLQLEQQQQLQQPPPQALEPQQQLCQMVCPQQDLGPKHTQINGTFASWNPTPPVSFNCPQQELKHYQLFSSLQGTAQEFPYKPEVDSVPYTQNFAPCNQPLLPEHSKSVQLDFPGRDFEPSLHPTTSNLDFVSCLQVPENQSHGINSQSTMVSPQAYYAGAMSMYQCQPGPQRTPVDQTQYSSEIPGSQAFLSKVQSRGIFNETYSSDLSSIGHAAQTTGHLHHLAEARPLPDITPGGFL
Kind of experiment: In vitro assay 3: antagonism in mouse cell line (AHR transactivation, firefly luciferase reporter, kynurenic acid prestimulated). The class given is cell-based. In short, it runs like this:
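Mouse cells stably carrying a DRE-driven AHR-inducible firefly luciferase reporter were prestimulated with the endogenous agonist kynurenic acid before compound addition. Luciferase read by SteadyGlo; cells without kynurenic acid served as full-inhibition control, with normalization to positive and negative controls. Repeat tests reported as mean or median.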

Where [3] appears, read: mouse Hepa 1c1c7 cells, 200 μM kynurenic acid, 20 hours, read-out: AHR Antagonism Mouse IC50.
The mark [4] stands for this setting: Hepa 1c1c7 cells, 200 μM kynurenic acid, 20 hours, firefly luciferase reporter, read-out: AHR Antagonism Mouse IC50.

SMILES strings stand for the structures. Like-named read-outs stand apart in the source and are kept apart here.

Broadly, the IC50 is the concentration that gives 50% inhibition. With `CCNC(=O)C(CC)Nc1nc2ccccc2c2nc(-c3cccc(OC(F)(F)F)c3)nn12` (stereo not shown) [Example 318, N-ethyl-2-({2-[3-(trifluoromethoxy)phenyl][1,2J4]triazolo[1,5-c]quinazolin-5-yl}amino)butanamide], the IC50 in experiment [1] was found to be 1.29e-08 M; in experiment [2] (setting [3]), 0.603 nM.

For `COc1ccc(-c2nc3c4ccccc4nc(NC4CCCCCNC4=O)n3n2)cc1` (stereo not shown) [Example 433, 3-{[2-(4-methoxyphenyl)[1,2,4]triazolo[1,5-c]quinazolin-5-yl]amino}azocan-2-one], the IC50 in experiment [1] stood at 1.64e-09 M; in experiment [2] (setting [3]) it was 0.647 nM.

On to `C[C@@H](Nc1nc2c(Br)cccc2c2nc(-c3cnn(C)c3)nn12)C(=O)NCCN1CCN(C)CC1` [Example 783, N^2-[7-bromo-2-(1-methyl-1H-pyrazol-4-yl)[1,2,4]triazolo[1,5-c]quinazolin-5-yl]-N-[2-(4-methylpiperazin-1-yl)ethyl]-D-alaninamide], for which the IC50 in experiment [1] (firefly luciferase reporter) was found to be 1.71e-07 M; in experiment [2] (setting [4]), 291 nM.

Turning to `O=C1NCCCC[C@H]1Nc1nc2ccccc2c2nc(-c3ccc(O)c(F)c3)nn12` [Example 629, (3R)-3-{[2-(3-fluoro-4-hydroxyphenyl)[1,2,4]triazolo[1,5-c]quinazolin-5-yl]amino}azepan-2-one], the IC50 in experiment [1] came to 4.88e-08 M; in experiment [2] (setting [3]), 190 nM.

On to `Cc1cccc2c1nc(N[C@@H]1CNCCNC1=O)n1nc(-c3cnn(C)c3)nc21` [Example 271, (6R)-6-{[7-methyl-2-(1-methyl-1H-pyrazol-4-yl)[1,2,4]triazolo[1,5-c]quinazolin-5-yl]amino}-1,4-diazepan-5-one], for which the half-maximal inhibitory concentration (IC50) in experiment [1] stood at 7.02e-07 M; in experiment [2] (setting [3]), 13900 nM.

Regarding `COc1ccc(-c2nc3c4c(C5CCOCC5)cccc4nc(N[C@@H]4CCCCNC4=O)n3n2)cc1` [Example 397, (3R)-3-{[2-(4-methoxyphenyl)-10-(oxan-4-yl)[1,2,4]triazolo[1,5-c]quinazolin-5-yl]amino}azepan-2-one], the IC50 turned out to be 1.83e-08 M in experiment [1] and 37.6 nM in experiment [2] (setting [3]).

As for `COc1cccc(-c2nc3c4ccccc4nc(NC4CCNC4=O)n3n2)c1` (single isomer, unassigned) [Example 121, 3-{[2-(3-methoxyphenyl)[1,2,4]triazolo[1,5-c]quinazolin-5-yl]amino}pyrrolidin-2-one], the IC50 in experiment [1] stood at 1.96e-07 M; in experiment [2] (setting [3]), 275 nM.

On to `O=C1NCCCC[C@H]1Nc1nc2ccccc2c2nc(-c3ccncc3F)nn12` [Example 369, (3R)-3-{[2-(3-fluoropyridin-4-yl)[1,2,4]triazolo[1,5-c]quinazolin-5-yl]amino}azepan-2-one], for which the IC50 in experiment [1] came to 1.64e-08 M; in experiment [2] (setting [3]), 9.97 nM.

For the compound `Cn1cc(-c2nc3c4ccccc4nc(N[C@@H]4CCCCNC4=O)n3n2)cn1` [Example 12, (3R)-3-{[2-(1-methyl-1H-pyrazol-4-yl)[1,2,4]triazolo[1,5-c]quinazolin-5-yl]amino}azepan-2-one], the results for the IC50 in experiment [1] and in experiment [2] (setting [3]) were 1.31e-08 M and 8.31 nM, respectively.

With `Cc1cscc1-c1nc2c3ccccc3nc(N[C@H]3CCCCNC3=O)n2n1` [Example 539, (3S)-3-{[2-(4-methylthiophen-3-yl)[1,2,4]triazolo[1,5-c]quinazolin-5-yl]amino}azepan-2-one], the IC50 in experiment [1] stood at 6.16e-08 M; in experiment [2] (setting [3]) it was 7.71 nM.

As to `Cn1cc(-c2nc3c4cccc(C5CC5)c4nc(N[C@@H]4CCCCNC4=O)n3n2)cn1` [Example 207, (3R)-3-{[7-cyclopropyl-2-(1-methyl-1H-pyrazol-4-yl)[1,2,4]triazolo[1,5-c]quinazolin-5-yl]amino}azepan-2-one], the IC50 in experiment [1] is 1.77e-08 M; in experiment [2] (setting [3]) it was 242 nM.

Turning to `CC[C@H](Nc1nc2c(Br)cccc2c2nc(-c3ccc(Cl)cc3OC(F)F)nn12)C(N)=O` [Example 698, (2S)-2-({7-bromo-2-[4-chloro-2-(difluoromethoxy)phenyl][1,2,4]triazolo[1,5-c]quinazolin-5-yl}amino)butanamide], the IC50 stood at 4.68e-08 M in experiment [1] and 7.35 nM in experiment [2] (read-out: AHR Antagonism Mouse IC50, mouse Hepa 1c1c7 cells, 200 μM kynurenic acid, 20 hours).

Regarding `CCn1nc(C)c(-c2nc3c4cccc(C(F)(F)F)c4nc(N[C@@H]4CCCCNC4=O)n3n2)c1C` [Example 738, (3R)-3-{[2-(1-ethyl-3,5-dimethyl-1H-pyrazol-4-yl)-7-(trifluoromethyl)[1,2,4]triazolo[1,5-c]quinazolin-5-yl]amino}azepan-2-one], the half-inhibitory concentration (IC50) in experiment [1] stood at 3.4e-09 M; in experiment [2] (setting [3]), 1.03 nM.

Turning to `O=C1NCCNC[C@H]1Nc1nc2ccccc2c2nc(-c3ccc(OC4CC4)cc3)nn12` [Example 411, (6R)-6-({2-[4-(cyclopropyloxy)phenyl][1,2,4]triazolo[1,5-c]quinazolin-5-yl}amino)-1,4-diazepan-5-one], the IC50 in experiment [1] turned out to be 1.77e-07 M; in experiment [2] (setting [3]), 11.2 nM.

`CCOC(=O)[C@@H](C)Nc1nc2ccccc2c2nc(-c3ccc(OC)cc3)nn12` [Example 657, ethyl N-[2-(4-methoxyphenyl)[1,2,4]triazolo[1,5-c]quinazolin-5-yl]-D-alaninate]: the IC50 in experiment [1] is 1.4e-08 M; in experiment [2] (setting [3]), 82.1 nM.

`COc1cccc(-c2nc3c4ccccc4nc(NC4CCN(C)C4=O)n3n2)c1` (single isomer, unassigned) [Example 122, 3-{[2-(3-methoxyphenyl)[1,2,4]triazolo[1,5-c]quinazolin-5-yl]amino}-1-methylpyrrolidin-2-one]: the IC50 in experiment [1] was 5.55e-08 M; in experiment [2] (setting [3]), 26.1 nM.

For `C[C@@H](Nc1nc2c(Br)cccc2c2nc(-c3cnn(C)c3)nn12)C(=O)N1CC2(CN(C)C2)C1` [Example 919, (2R)-2-{[7-bromo-2-(1-methyl-1H-pyrazol-4-yl)[1,2,4]triazolo[1,5-c]quinazolin-5-yl]amino}-1-(6-methyl-2,6-diazaspiro[3.3]heptan-2-yl)propan-1-one], the IC50 in experiment [1] (firefly luciferase reporter) stood at 1.18e-06 M; in experiment [2] (setting [4]), 613 nM.

Consider `O=C1NCCCC[C@H]1Nc1nc2ccccc2c2nc(-c3cccnc3F)nn12` [Example 640, (3R)-3-{[2-(2-fluoropyridin-3-yl)[1,2,4]triazolo[1,5-c]quinazolin-5-yl]amino}azepan-2-one], for which the IC50 in experiment [1] worked out at 2.54e-08 M; in experiment [2] (setting [3]), 30.7 nM.

As to `O=C1NCCCC[C@H]1Nc1nc2c(Br)cccc2c2nc(-c3ccc(Cl)cc3OC(F)(F)F)nn12` [Example 571, (3R)-3-({7-bromo-2-[4-chloro-2-(trifluoromethoxy)phenyl][1,2,4]triazolo[1,5-c]quinazolin-5-yl}amino)azepan-2-one], the figures for the IC50 in experiment [1] and in experiment [2] (setting [3]) were over 2e-05 M and 10.1 nM, respectively.

For `COc1cccc(-c2nc3c4ccccc4nc(N[C@@H](CO)C(N)=O)n3n2)c1` [Example 85, N^2-[2-(3-methoxyphenyl)[1,2,4]triazolo[1,5-c]quinazolin-5-yl]-L-serinamide], the IC50 in experiment [1] was 4.95e-07 M; in experiment [2] (setting [3]), 229 nM.

For the origin of these results see patent US20230113037A1 (Bayer Aktiengesellschaft, priority 2019, published 2023).
